Measurements reported in publication PMC7967160, “Synthesis and Antiviral Evaluation of (1,4-Disubstituted-1,2,3-Triazol)-(E)-2-Methyl-but-2-Enyl Nucleoside Phosphonate Prodrugs” (Molecules, 2021).
Values joined by “and” are separate entries in the source; they are usually repeats but may differ in a detail not shown here. Equal values may be shown once.

Assays:
[1] = system: human hepatitis C virus (HCV); parameters: method as in PMID 23911854; details: at 10 μM; cited from earlier work
[2] = system: CEM cells; parameters: method as in PMID 23911854; details: cited from earlier work
[3] = system: hepatitis B virus (HBV); assay: Anti-HBV activity of compound 6 (unpublished data); type: cell-based; details: read-out: EC50 (HBV)
[4] = in vitro
[5] = system: HBV; assay: HBV assay in Huh7 cells transfected with pCI_HBVpg1820, intracapsid viral DNA by real-time PCR; type: cell-based, hepatitis B virus (HBV); details: for inhibition at 10 µM: Hepatitis B virus, Huh-7, 96 h
Protocol: In Huh7 cells: antiviral activity against HBV in cell culture was measured as previously described. Briefly, Huh7 cells were transfected with plasmid pCI_HBVpg1820 containing 1.1 unit of HBV genome under the control of a human cytomegalovirus (CMV) promoter. The drugs were stored at 1000× in DMSO at −20 °C. For each experiment, the drugs were diluted in DMEM cell culture medium (Thermo Fisher Scientific, Artenay, France) to a final concentration of 10 μM. All drugs were tested in triplicate in two independent experiments. After 4 days of culture, intracapsid viral DNA was quantified by duplex real-time PCR, using primers described elsewhere, on a LightCycler 480 II apparatus (Roche Diagnostics France, Meylan, France) using TaqMan Universal PCR Mastermix II without UNG (Thermo Fisher Scientific, Artenay, France). Cells were quantified using primers by real-time PCR, using primers HPRT1_F (5′-[…]) and HPRT1_R (5′-[…]), on a LightCycler 480 II apparatus (Roche) using a LightCycler® 480 SYBR Green I Master (Roche Diagnostics France, Meylan, France). Cycling reactions were performed with the following parameters: 5 min at 95 °C, followed by 45 cycles of 10 s at 95 °C, 15 s at 60 °C, 10 s at 72 °C. The inhibition of HBV replication (%) and cell culture viability (%) were quantified using the following formulas. Inhibition of HBV replication (%)=1− HBV DNA copy numberDrug/HBV DNA copy numberCell culture medium Cell viability (%)= HPRT1 DNA copy numberDrug/HPRT1 DNA copy numberCell culture medium

[6] = system: HBV; assay: HBV assay in HepAD38 cells, real-time PCR for HBV DNA in supernatant; type: cell-based; details: Hepatitis B virus, 168 h, 7 days
Protocol: In HepAD38 cells were seeded at 50,000 cells/well in collagen-coated 96-well plates. Test compounds or 2′,3′-didéoxy-3′-thiacytidin (3TC) (control) were added to HepAD38 cells to a final concentration of 10 μM.
Real-Time PCR for HBV DNA. The experiment lasted 7 days. On day 7, total DNA was purified from the supernatant using a commercially available kit (DNeasy 96 Blood & Tissue kit, Qiagen). The HBV DNA was amplified in a real-time PCR assay using a LightCycler 480 (Roche) as described elsewhere. All samples were tested in duplicate in two to three independent experiments. Analysis: The concentration of compound that inhibited HBV DNA replication by 50% (EC50) was determined by linear regression.

[7] = system: HIV-1 LAI; assay: HIV assay in human PBM cells infected with HIV-1 LAI, RT quantification; type: cell-based; details: Human immunodeficiency virus 1, PBMC; 10 μM, PBM cells, HIV-1 LAI
Protocol: The assay was performed as described by Schinazi et al. with minor modifications. […] The supernatants were harvested, and the HIV-1 RT was quantified.

[8] = in vitro; type: cell-based; details: human; PBM cells; read-out: MTS Cytotoxicity (IC50, μM) PBM
Protocol: (§1) Assays were performed in human peripheral blood mononuclear (PBM) and human liver (HepG2) cells via MTS assay using the CellTiter 96® Non-Radioactive Cell Proliferation (Promega) kit as previously described^3. Cytotoxicity was expressed as the concentration of test compounds that inhibited cell proliferation by 50% (IC50) and calculated using the Chou and Talalay method.

[9] = Cytotoxicity MTS assay in HepG2 cells; type: cell-based; details: human
Protocol: as §1

[10] = system: SARS-CoV-2 strain BavPat1; assay: SARS-CoV-2 assay in Vero E6 cells (CellTiter-Blue); details: 10 μM
[11] = Cell culture viability in the Huh7 HBV assay (HPRT1 DNA copy number); details: human
[12] = in vitro; details: human
[13] = read-out: HBV % Inhibition Huh7, 10 μM, Huh7 cells, 4 days
[14] = 10 μM, Huh7 cells, 4 days, read-out: HBV % Inhibition Huh7

CCCc1ccc(-c2cn(C/C=C/CP(=O)(OCOC(=O)C(C)(C)C)OCOC(=O)C(C)(C)C)nn2)cc1 [Compound 5]
% of inhibition (HCV) [1]: 95.6% and 95%
CC50 [2]: 55.3 µM

C/C(=C\CP(=O)(OCOC(=O)OC(C)C)OCOC(=O)OC(C)C)Cn1cnc2c(O)nc(N)nc21 [Compound 6, bis(POC)-(E)-2-methyl-but-2-enylguanine]
EC50 [3]: 8.5 µM
CC50 [4]: > 100 µM

C/C(=C\CP(=O)(OCOC(=O)OC(C)C)OCOC(=O)OC(C)C)Cn1cc(C(N)=O)nn1 [Compound 11j, [[(E)-4-(4-Carbamoyltriazol-1-yl)-3-methyl-but-2-enyl]-(isopropoxycarbonyloxymethoxy)phosphoryl]oxymethyl isopropyl carbonate]
HBV % Inhibition Huh7 ([5]; 10 μM, Huh7 cells, 4 days): 40%
inhibition at 10 µM [5, 13]: > 40%
inhibition at 10 µM [6]: 31.3%
inhibition at 10 µM [7]: < 1%
IC50 [8]: 76.8 µM
IC50 [9]: > 100 µM
SARS-CoV-2 % Inhibition Vero E6 [10]: <1%
viability at 4 days, 10 µM [11]: 100%

CCCCCCCC(=O)NCc1cn(C/C(C)=C/CP(=O)(OCOC(=O)OC(C)C)OCOC(=O)OC(C)C)nn1 [Compound 11k, [[(E)-4-(4-Octanoylaminomethyltriazol-1-yl)-3-methyl-but-2-enyl]-(isopropoxycarbonyloxymethoxy)phosphoryl]oxymethyl isopropyl carbonate]
inhibition at 10 µM [5, 14]: < 1%
inhibition at 10 µM [6]: 6.1%
inhibition at 10 µM [7]: 42%
IC50 [8]: 51.5 µM
IC50 [9]: 57.3 µM
SARS-CoV-2 % Inhibition Vero E6 [10]: 5%
viability at 4 days, 10 µM [11]: 100%

C/C(=C\CP(=O)(OCOC(=O)OC(C)C)OCOC(=O)OC(C)C)Cn1cc(-c2ccc([N+](=O)[O-])cc2)nn1 [Compound 11l, [[(E)-4-(4-Nitrophenyltriazol-1-yl)-3-methyl-but-2-enyl]-(isopropoxycarbonyloxymethoxy)phosphoryl]oxymethyl isopropyl carbonate]
HBV % Inhibition Huh7 ([5]; 10 μM, Huh7 cells, 4 days): 40%
inhibition at 10 µM [5, 13]: > 40%
anti-HBV activity in words ([5]; compared to entecavir (Huh7) and lamivudine (HepAd38)): good activity
inhibition at 10 µM [6]: 42.6%
inhibition at 10 µM [7]: 38.8%
IC50 [8]: 23.5 µM
IC50 [9]: 85.3 µM
SARS-CoV-2 % Inhibition Vero E6 [10]: 10%
viability at 4 days, 10 µM [11]: 100%

COC(=O)c1cn(C/C(C)=C/CP(=O)(OCOC(=O)OC(C)C)OCOC(=O)OC(C)C)nn1 [Compound 11n, Methyl-1-[(E)-4-[bis(isopropoxycarbonyloxymethoxy)phosphoryl]-2-methyl-but-2-enyl]triazole-4-carboxylate]
inhibition at 10 µM [5, 14]: 28%
inhibition at 10 µM [6]: 3.9%
inhibition at 10 µM [7]: < 1%
IC50 [8]: 40.9 µM
IC50 [9]: > 100 µM
SARS-CoV-2 % Inhibition Vero E6 [10]: <1%
viability at 4 days, 10 µM [11]: 60%

CCOC(=O)c1cn(C/C(C)=C/CP(=O)(OCOC(=O)OC(C)C)OCOC(=O)OC(C)C)nn1 [Compound 11o, Ethyl-1-[(E)-4-[bis(isopropoxycarbonyloxymethoxy)phosphoryl]-2-methyl-but-2-enyl]triazole-4-carboxylate]
inhibition at 10 µM [5, 14]: < 1%
inhibition at 10 µM [6]: 41.2%
inhibition at 10 µM [7]: 22.4%
IC50 [8]: 67.5 µM
IC50 [9]: > 100 µM
SARS-CoV-2 % Inhibition Vero E6 [10]: <1%
viability at 4 days, 10 µM [11]: 60%

CNC(=O)c1cn(C/C(C)=C/CP(=O)(OCOC(=O)OC(C)C)OCOC(=O)OC(C)C)nn1 [Compound 11p, [[(E)-4-(4-Methylcarbamoyltriazol-1-yl)-3-methyl-but-2-enyl]-(isopropoxycarbonyloxymethoxy)phosphoryl]oxymethyl isopropyl carbonate]
inhibition at 10 µM [5, 14]: 14%
inhibition at 10 µM [6]: < 1%
inhibition at 10 µM [7]: 36.4%
IC50 [8]: 78.3 µM
IC50 [9]: > 100 µM
SARS-CoV-2 % Inhibition Vero E6 [10]: <1%
viability at 4 days, 10 µM [11]: 54%

CCNC(=O)c1cn(C/C(C)=C/CP(=O)(OCOC(=O)OC(C)C)OCOC(=O)OC(C)C)nn1 [Compound 11q, [[(E)-4-[4-(Ethylcarbamoyl)triazol-1-yl]-3-methyl-but-2-enyl]-(isopropoxycarbonyloxymethoxy)phosphoryl]oxymethyl isopropyl carbonate]
inhibition at 10 µM [5, 14]: < 1%
inhibition at 10 µM [6]: < 1%
inhibition at 10 µM [7]: 31.2%
IC50 [8]: 80.6 µM
IC50 [9]: > 100 µM
SARS-CoV-2 % Inhibition Vero E6 [10]: <1%
viability at 4 days, 10 µM [11]: 90%

CCCCCCCCCCCCCCCCOCCCOP(=O)(C/C=C(\C)Cn1cc(-c2ccc(CCCCC)cc2)nn1)OCOC(=O)OC(C)C (stereo not drawn) [Compound 15c, [3-Hexadecyloxypropoxy-[(E)-3-methyl-4-[4-(4-pentylphenyl)triazol-1-yl]but-2-enyl]phosphoryl]oxymethyl isopropyl carbonate]
inhibition at 10 µM [5, 14]: 14%
inhibition at 10 µM [6]: 28.8%
inhibition at 10 µM [7]: 28.2%
IC50 [8]: 50.5 µM
IC50 [9]: > 100 µM
SARS-CoV-2 % Inhibition Vero E6 [10]: <1%
viability at 4 days, 10 µM [11]: 47%

CCCCCCCCCCCCCCCCOCCCOP(=O)(C/C=C(\C)Cn1cc(C(N)=O)nn1)OCOC(=O)OC(C)C (stereo not drawn) [Compound 15j, [[(E)-4-(4-Carbamoyltriazol-1-yl)-3-methyl-but-2-enyl]-(3-hexadecyloxypropoxy)phosphoryl]oxymethyl isopropyl carbonate]
inhibition at 10 µM [5, 14]: 62%
inhibition at 10 µM [6]: < 1%
inhibition at 10 µM [7]: 32.2%
IC50 [8]: 43.1 µM
IC50 [9]: 66.4 µM
SARS-CoV-2 % Inhibition Vero E6 [10]: <1%
viability at 4 days, 10 µM [11]: 74%

C=C1[C@H](CO)[C@@H](O)C[C@@H]1n1cnc2c(=O)[nH]c(N)nc21 [Entecavir, reference compound]
inhibition at 10 µM [5, 14]: 92%
viability at 4 days, 10 µM [12]: 96%
